Results from patent US11077070B2 (Wilmore Labs LLC, priority 2009, dated 2021).

Columns and labels:
[1] = Resveratrol solubility in ribose, U.V. HPLC and mass spectrometry peak areas (Table 1); assay type: physicochemical
Protocol: The peak areas of the LC traces using U.V. and MS spectral detection were determined. […]

[2] = Solubility of resveratrol in 3M ribose, U.V. HPLC and MS peak areas (Table 2); assay type: physicochemical
From the text: Table 2 and 3 summarize the results.

[3] = Dissolution of resveratrol in sugar or sugar alcohol solutions (observation); assay type: physicochemical
Protocol: A ribose/water solution (18 g/2 g) was heated.
In another experiment, various sucrose/water mixtures were heated to boiling point. Reservatrol was added to each sucrose/water solution. […] On cooling, resveratrol/sucrose/water mixtures formed crystalline solids composed of small crystals; in contrast, the sucrose/water solution formed a crystalline solid composed of large crystals.
In another experiment, water was added to the solid resveratrol/sucrose/water mixtures.
An aqueous solution of dextrose was prepared and heated to boiling. The resveratrol was added to the warm syrup and allowed to cool further. While still liquid, the syrup retained a capsinoid flavor. On cooling further, a white powdery mixture of crystals was formed. No capsinoid-like flavor was detected when the solid mixture was tasted.
Resveratrol was added to warm solutions of xylitol or erythritol. […] On cooling the xylitol or erythritol solution formed a crystalline solid that appeared to exclude the resveratrol. No capsaicirioid-like flavor was detected when each reservatrol/xylitol and reservatrol/erythritol solid mixture was tasted.
Water was added to the each reservatrol/xylitol and reservatrol/erythritol mixture.

[4] = trans/cis isomerisation of resveratrol in water or 3 M ribose, with or without 30 minutes U.V. light (Table 3, FIGS. 1-4); assay type: physicochemical; settings: for cis isomer peak area, Mass spectroscopy / cis isomer peak area, PDA (trans-316 nm, cis-284 nm) / cis isomer peak area, Tandem mass spectroscopy / trans isomer peak area, Mass spectroscopy / trans isomer peak area, PDA (trans-316 nm, cis-284 nm) / trans isomer peak area, Tandem mass spectroscopy: UV exposed 30 minutes
From the text: PDA-284 nm panel: NL: 4.31E5; nm=283.5-284.5; PDA Avalon. MS Panel: NL: 3.90E6; m/z=226.60-227.60; F: -c APCI corona; sid=10.00; Full ms [100.00-1000.00] MS ICIS. Tandem MS panel: NL: 7.71E5; m/z=184.50-185.50; F: -c APCI corona; sid=10.00 Full ms2 227.00@cid45.00 [60.00-250.00] MS ICIS.

[5] = Pharmacokinetic study, 100 mg resveratrol, oral transmucosal resveratrol/solubilizer formulation (test) versus controls; assay type: in vivo, human; settings: for Cav: plasma
Protocol: Any adverse effects are recorded. […] These adjustments are made using the formulas […])).

[6] = 0.4 mg/ml standard in MeOH/water
[7] = 1.3 mg resveratrol in 1 ml 1M ribose
[8] = 1.3 mg resveratrol in 1 ml water
[9] = 1.6 mg resveratrol in 1 ml 3M ribose
[10] = 1.6 mg resveratrol in 1 ml water

Q: With `Oc1ccc(/C=C/c2cc(O)cc(O)c2)cc1` [Resveratrol, 3,5,4′-trihydroxy-trans-stilbene] as the compound, how does the “Resveratrol MS peak area” value [1, 6] read?
A: 361620189

Q: And the “Resveratrol MS/MS peak area” value [1, 6]?
A: 22825783

Q: What about the “Resveratrol UV peak area” value [1, 6] of the same compound?
A: 32589198

Q: And the “Resveratrol MS peak area” value [1, 7]?
A: 34006422

Q: And the “Resveratrol MS/MS peak area” value [1, 7]?
A: 2177343

Q: What about the “Resveratrol UV peak area” value [1, 7] of the same compound?
A: 6879044

Q: What about the “Resveratrol MS peak area” value [1, 8] of the same compound?
A: 17991728

Q: And the “Resveratrol MS/MS peak area” value [1, 8]?
A: 1055482

Q: What about the “Resveratrol UV peak area” value [1, 8] of the same compound?
A: 3757436

Q: And the “Resveratrol MS peak area” value ([1]; 1:1 dilution of ribose sample)?
A: 59987321

Q: And the “Resveratrol MS/MS peak area” value ([1]; 1:1 dilution of ribose sample)?
A: 4277049

Q: And the “Resveratrol UV peak area” value ([1]; 1:1 dilution of ribose sample)?
A: 10156011

Q: What about the “Resveratrol MS peak area” value ([1]; 1:1 dilution of water sample) of the same compound?
A: 36350491

Q: And the “Resveratrol MS/MS peak area” value ([1]; 1:1 dilution of water sample)?
A: 2235878

Q: And the “Resveratrol UV peak area” value ([1]; 1:1 dilution of water sample)?
A: 7414378

Q: What about the “percentage increase in the peak area with ribose” value ([1]; ribose (undiluted) sample versus water sample) of the same compound?
A: 83.1%

Q: And the “peak area, Mass spectroscopy” value [2, 9]?
A: 69226333

Q: What about the “peak area, PDA (trans-316 nm, cis-284 nm)” value [2, 9] of the same compound?
A: 17477801

Q: What about the “peak area, Tandem mass spectroscopy” value [2, 9] of the same compound?
A: 11603388

Q: What about the “peak area, Mass spectroscopy” value [2, 10] of the same compound?
A: 35925663

Q: What about the “peak area, PDA (trans-316 nm, cis-284 nm)” value [2, 10] of the same compound?
A: 10448839

Q: What about the “peak area, Tandem mass spectroscopy” value [2, 10] of the same compound?
A: 6058729

Q: And the “% increase of peak area, Mass spectroscopy” value ([2]; 3M ribose versus water)?
A: 92.7%

Q: What about the “% increase of peak area, PDA (trans-316 nm, cis-284 nm)” value ([2]; 3M ribose versus water) of the same compound?
A: 67.3%

Q: And the “% increase of peak area, Tandem mass spectroscopy” value ([2]; 3M ribose versus water)?
A: 91.5%

Q: And the solubility ([3]; aqueous dextrose solution, heated to boiling and cooled)?
A: not well soluble

Q: And the solubility ([3]; in ribose and in fructose/dextrose)?
A: soluble

Q: What about the “solubility in the presence of ribose” value ([3]; ribose/water solution (18 g/2 g), 100 mg resveratrol to 1000 mg solution, inferred from sensation in the mouth) of the same compound?
A: increased

Q: And the dissolution ([3]; sucrose/water solution (1:1 v/v))?
A: failed to dissolve

Q: And the dissolution ([3]; various sucrose/water mixtures heated to about 90° C., then cooled)?
A: failed to dissolve

Q: And the dissolution ([3]; warm solutions of xylitol or erythritol)?
A: observed not to dissolve

Q: And the “behaviour on adding water” value ([3]; water added to reservatrol/xylitol and reservatrol/erythritol mixtures)?
A: precipitated out of solution

Q: What about the “behaviour on adding water” value ([3]; water added to the solid resveratrol/sucrose/water mixtures) of the same compound?
A: precipitated out of solution

Q: And the “cis isomer peak area, Mass spectroscopy” value ([4]; 3M ribose)?
A: 67794774

Q: And the “cis isomer peak area, PDA (trans-316 nm, cis-284 nm)” value ([4]; 3M ribose)?
A: 3348277

Q: What about the “cis isomer peak area, Tandem mass spectroscopy” value ([4]; 3M ribose) of the same compound?
A: 12957854

Q: What about the “trans isomer peak area, Mass spectroscopy” value ([4]; 3M ribose) of the same compound?
A: 30056046

Q: What about the “trans isomer peak area, PDA (trans-316 nm, cis-284 nm)” value ([4]; 3M ribose) of the same compound?
A: 9667985

Q: What about the “trans isomer peak area, Tandem mass spectroscopy” value ([4]; 3M ribose) of the same compound?
A: 4678183

Q: And the “isomers detected, PDA-316 nm panel” value ([4]; FIG. 1, 1.6 mg resveratrol in 1 ml water, no U.V. exposure)?
A: cis isomer is not detected

Q: And the “isomers detected, PDA-316 nm panel” value ([4]; FIG. 2, 1.6 mg resveratrol in 1 ml 3 M ribose, no U.V. exposure)?
A: cis isomer is not detected

Q: What about the “isomers detected, PDA-316 nm panel” value ([4]; FIG. 3, 1.6 mg resveratrol in 1 ml water exposed to U.V. light for 30 minutes) of the same compound?
A: trans isomer and cis isomer peaks detected

Q: And the “isomers detected, PDA-316 nm panel” value ([4]; FIG. 4, 1.6 mg resveratrol in 1 ml 3 M ribose exposed to U.V. light for 30 minutes)?
A: trans isomer and cis isomer peaks detected

Q: What about the “cis isomer peak area, Mass spectroscopy” value ([4]; Water) of the same compound?
A: 42202693

Q: And the “cis isomer peak area, PDA (trans-316 nm, cis-284 nm)” value ([4]; Water)?
A: 2260306

Q: What about the “cis isomer peak area, Tandem mass spectroscopy” value ([4]; Water) of the same compound?
A: 8357052

Q: What about the “trans isomer peak area, Mass spectroscopy” value ([4]; Water) of the same compound?
A: 7702267

Q: What about the “trans isomer peak area, PDA (trans-316 nm, cis-284 nm)” value ([4]; Water) of the same compound?
A: 3293034

Q: What about the “trans isomer peak area, Tandem mass spectroscopy” value ([4]; Water) of the same compound?
A: 1489337

Q: What about the “Serum Cmax levels of resveratrol, test versus control subjects” value ([5]; 100 mg resveratrol) of the same compound?
A: higher in test subjects

Q: What about the “peak plasma level and bioavailability, test versus controls” value ([5]; resveratrol/solubilizer formulation by oral transmucosal route versus oral transmucosal resveratrol/sucrose or oral resveratrol/solubilizer) of the same compound?
A: greater peak plasma level and bioavailability

Q: With `O=S(=O)(O)Oc1cc(O)cc(/C=C/c2ccc(O)cc2)c1` [3-sulfate, trans-resveratrol-3-O-sulfate] as the compound, how does the Cav ([5]; Control(s): 100 mg resveratrol) read?
A: 34 ng/mL

Q: And the Cav ([5]; Test: 100 mg resveratrol, oral transmucosal resveratrol/solubilizer formulation)?
A: 23 ng/mL
